# Source: paper PMC7614683, “A small molecule PI3Kα activator for cardioprotection and neuroregeneration” (Nature, 2023)
# Molecular target: T1, full length p110α/p85α (Homo sapiens, UniProt P42336)
# T1 construct: Full-length human p110α was expressed either in a complex with full-length human p85α (for HTS, biochemistry and HDX-MS); 6xHis tag followed by TEV protease site (N); host or cells: Spodoptera frugiperda Sf9, baculovirus
# Experiment: HDX-MS
# Format: binding
# Experimental: Sample preparation: HDX-MS experiments were carried out as described previously. […] In total, three biological replicates, i.e. three separate protein preparations, each with exchange experiments carried out in triplicate were conducted. Data presented in the manuscript is a single biological replicate. Data acquisition and analysis were as follows: Each sample was thawed and injected onto an M-Class Acquity UPLC with HDX Technology (Waters) kept at 0.1°C. Proteins were digested in-line using an Enzymate Pepsin Column (Waters, #186007233) at 15°C for 2 min at 200 μl/min. Peptic peptides were then eluted onto an Acquity UPLC BEH C18 Column (Waters, #186002346) equilibrated in Pepsin-A buffer (0.1% formic acid) and separated using a 5-35% gradient of Pepsin-B buffer (0.1% formic acid, 99% acetonitrile) over 7 min at a flowrate of 40 μl/min. Data were collected on a Waters Cyclic IMS, with an electrospray ionisation source, from 50-2000 m/z. Data were collected in the HDMS^E mode. A single pass of the cyclic IMS was conducted. A “blank” sample of protein dilution buffer with quench was run between samples, and carry-over of peptides was routinely monitored. Five replicates were used to identify non-deuterated peptides. Criteria used to include peptides in the HDX-MS dataset were: minimum intensity 5000, minimum sequence length 5, maximum sequence length 25, a minimum of 3 fragment ions, a minimum of 0.1 products per amino acid, a minimum score of 6.62, a maximum MH+ Error of 10 ppm, identification in at least two datasets with a retention time RSD of less than 10%. Data was analysed using Protein Lynx Global Server (Waters) and DynamX (Waters). All peptides were manually inspected for EX1 kinetics and sufficient quality of the peptide envelope. Data quality, experiment design, and reporting of data meets the criteria as determined by the HDX-MS community. Uptake files were created using Baryonyx. Data are available via ProteomeXchange with identifier PXD037721.
# [1] = PK3CA_HUMAN peptide 177-186, time point 1 of 5
# [2] = PK3CA_HUMAN peptide 177-186, time point 2 of 5
# [3] = PK3CA_HUMAN peptide 177-186, time point 3 of 5
# [4] = PK3CA_HUMAN peptide 177-186, time point 4 of 5
# [5] = PK3CA_HUMAN peptide 177-186, time point 5 of 5
# [6] = PK3CA_HUMAN peptide 186-202, time point 1 of 5
# [7] = PK3CA_HUMAN peptide 186-202, time point 2 of 5
# [8] = PK3CA_HUMAN peptide 186-202, time point 3 of 5
# [9] = PK3CA_HUMAN peptide 186-202, time point 4 of 5
# [10] = PK3CA_HUMAN peptide 186-202, time point 5 of 5
# [11] = PK3CA_HUMAN peptide 207-219, time point 1 of 5
# [12] = PK3CA_HUMAN peptide 207-219, time point 2 of 5
# [13] = PK3CA_HUMAN peptide 207-219, time point 3 of 5
# [14] = PK3CA_HUMAN peptide 207-219, time point 4 of 5
# [15] = PK3CA_HUMAN peptide 207-219, time point 5 of 5
# [16] = PK3CA_HUMAN peptide 220-237, time point 1 of 5
# [17] = PK3CA_HUMAN peptide 220-237, time point 2 of 5
# [18] = PK3CA_HUMAN peptide 220-237, time point 3 of 5
# [19] = PK3CA_HUMAN peptide 220-237, time point 4 of 5
# [20] = PK3CA_HUMAN peptide 220-237, time point 5 of 5
# [21] = PK3CA_HUMAN peptide 224-238, time point 1 of 5
# [22] = PK3CA_HUMAN peptide 224-238, time point 2 of 5
# [23] = PK3CA_HUMAN peptide 224-238, time point 3 of 5
# [24] = PK3CA_HUMAN peptide 224-238, time point 4 of 5
# [25] = PK3CA_HUMAN peptide 224-238, time point 5 of 5
# [26] = PK3CA_HUMAN peptide 238-250, time point 1 of 5
# [27] = PK3CA_HUMAN peptide 238-250, time point 2 of 5
# [28] = PK3CA_HUMAN peptide 238-250, time point 3 of 5
# [29] = PK3CA_HUMAN peptide 238-250, time point 4 of 5
# [30] = PK3CA_HUMAN peptide 238-250, time point 5 of 5
# [31] = PK3CA_HUMAN peptide 238-259, time point 1 of 5
# [32] = PK3CA_HUMAN peptide 238-259, time point 2 of 5
# [33] = PK3CA_HUMAN peptide 238-259, time point 3 of 5
# [34] = PK3CA_HUMAN peptide 238-259, time point 4 of 5
# [35] = PK3CA_HUMAN peptide 238-259, time point 5 of 5
# [36] = PK3CA_HUMAN peptide 241-250, time point 1 of 5
# [37] = PK3CA_HUMAN peptide 241-250, time point 2 of 5
# T1 sequence (P42336 whole entry): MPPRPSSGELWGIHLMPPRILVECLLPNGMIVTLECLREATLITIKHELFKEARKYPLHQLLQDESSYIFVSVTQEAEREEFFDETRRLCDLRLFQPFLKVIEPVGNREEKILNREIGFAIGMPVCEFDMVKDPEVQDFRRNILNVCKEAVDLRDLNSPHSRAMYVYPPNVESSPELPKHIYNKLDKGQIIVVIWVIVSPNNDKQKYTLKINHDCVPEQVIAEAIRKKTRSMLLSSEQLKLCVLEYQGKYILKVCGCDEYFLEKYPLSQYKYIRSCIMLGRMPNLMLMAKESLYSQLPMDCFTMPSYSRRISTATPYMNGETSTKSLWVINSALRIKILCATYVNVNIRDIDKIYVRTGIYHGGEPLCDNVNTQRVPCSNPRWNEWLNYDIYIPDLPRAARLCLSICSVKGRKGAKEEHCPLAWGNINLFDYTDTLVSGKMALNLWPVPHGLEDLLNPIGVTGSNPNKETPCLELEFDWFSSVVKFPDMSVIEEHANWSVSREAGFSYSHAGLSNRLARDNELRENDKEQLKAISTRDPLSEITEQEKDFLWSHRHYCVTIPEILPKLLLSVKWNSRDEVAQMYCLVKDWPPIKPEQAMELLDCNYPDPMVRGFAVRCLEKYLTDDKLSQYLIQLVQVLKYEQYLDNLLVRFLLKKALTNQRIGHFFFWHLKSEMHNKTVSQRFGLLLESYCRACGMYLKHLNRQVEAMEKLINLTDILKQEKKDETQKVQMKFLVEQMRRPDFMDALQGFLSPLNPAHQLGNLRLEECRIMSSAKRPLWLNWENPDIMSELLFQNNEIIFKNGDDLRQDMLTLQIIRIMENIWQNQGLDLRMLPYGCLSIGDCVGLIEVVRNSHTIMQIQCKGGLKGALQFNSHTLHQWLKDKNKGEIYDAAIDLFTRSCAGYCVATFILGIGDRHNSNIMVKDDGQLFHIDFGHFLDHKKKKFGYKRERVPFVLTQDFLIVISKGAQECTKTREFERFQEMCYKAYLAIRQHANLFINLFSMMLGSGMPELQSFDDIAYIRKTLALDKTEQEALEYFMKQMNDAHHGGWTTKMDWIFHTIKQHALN
# T1 sequence (P27986 whole entry partner): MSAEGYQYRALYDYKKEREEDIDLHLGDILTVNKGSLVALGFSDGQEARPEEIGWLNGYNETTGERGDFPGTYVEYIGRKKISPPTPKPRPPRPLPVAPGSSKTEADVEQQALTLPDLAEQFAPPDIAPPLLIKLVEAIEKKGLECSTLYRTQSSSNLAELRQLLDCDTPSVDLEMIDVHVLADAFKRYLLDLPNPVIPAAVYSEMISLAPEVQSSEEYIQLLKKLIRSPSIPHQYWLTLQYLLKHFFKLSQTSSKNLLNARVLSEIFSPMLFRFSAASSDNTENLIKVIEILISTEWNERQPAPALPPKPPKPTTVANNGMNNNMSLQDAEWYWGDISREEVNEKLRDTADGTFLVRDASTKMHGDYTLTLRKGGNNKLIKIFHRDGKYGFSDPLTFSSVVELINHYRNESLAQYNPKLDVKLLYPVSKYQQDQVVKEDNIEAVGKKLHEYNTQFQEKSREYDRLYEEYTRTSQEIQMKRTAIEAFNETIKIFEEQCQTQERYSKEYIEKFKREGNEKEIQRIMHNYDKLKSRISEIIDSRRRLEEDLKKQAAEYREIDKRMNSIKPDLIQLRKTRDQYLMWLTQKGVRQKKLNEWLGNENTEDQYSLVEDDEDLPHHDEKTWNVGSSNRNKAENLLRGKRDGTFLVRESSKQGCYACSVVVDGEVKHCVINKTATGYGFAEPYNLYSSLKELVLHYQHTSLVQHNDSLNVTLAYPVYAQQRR
smiles,measurement,setting,value
CCN1CCN(c2ccc(Nc3cc(Nc4cccc5c4N(C(C)=O)CC5)ccn3)cc2)CC1 [Compound 1938],changes in HDX-MS protection of PI3Kα,250 μM 1938 or 5 μM BYL719,protection of a region in the C-terminus of the kinase domain consisting of amino acids (AA) 1002-1016 of p110α
same,HDX difference (%D),[1],-1.1%
same,HDX difference (Da),[1],-0.10 Da
same,HDX difference (%D),[2],0.188%
same,HDX difference (Da),[2],0.0169 Da
same,HDX difference (%D),[3],0.0654%
same,HDX difference (Da),[3],0.00589 Da
same,HDX difference (%D),[4],-0.325%
same,HDX difference (Da),[4],-0.03 Da
same,HDX difference (%D),[5],-0.186%
same,HDX difference (Da),[5],-0.0168 Da
same,HDX difference (%D),[6],-0.741%
same,HDX difference (Da),[6],-0.10 Da
same,HDX difference (%D),[7],0.268%
same,HDX difference (Da),[7],0.0349 Da
same,HDX difference (%D),[8],0.253%
same,HDX difference (Da),[8],0.0328 Da
same,HDX difference (%D),[9],-0.11%
same,HDX difference (Da),[9],-0.0143 Da
same,HDX difference (%D),[10],-0.0482%
same,HDX difference (Da),[10],-0.00626 Da
same,HDX difference (%D),[11],-0.6%
same,HDX difference (Da),[11],-0.07 Da
same,HDX difference (%D),[12],0.1%
same,HDX difference (Da),[12],0.0108 Da
same,HDX difference (%D),[13],0.0043%
same,HDX difference (Da),[13],0.000474 Da
same,HDX difference (%D),[14],-0.136%
same,HDX difference (Da),[14],-0.0149 Da
same,HDX difference (%D),[15],-0.4%
same,HDX difference (Da),[15],-0.0435 Da
same,HDX difference (%D),[16],-0.3%
same,HDX difference (Da),[16],-0.0451 Da
same,HDX difference (%D),[17],0.0936%
same,HDX difference (Da),[17],0.014 Da
same,HDX difference (%D),[18],0.319%
same,HDX difference (Da),[18],0.05 Da
same,HDX difference (%D),[19],-0.0933%
same,HDX difference (Da),[19],-0.014 Da
same,HDX difference (%D),[20],-0.152%
same,HDX difference (Da),[20],-0.0229 Da
same,HDX difference (%D),[21],-0.8%
same,HDX difference (Da),[21],-0.0951 Da
same,HDX difference (%D),[22],0.43%
same,HDX difference (Da),[22],0.05 Da
same,HDX difference (%D),[23],0.056%
same,HDX difference (Da),[23],0.00672 Da
same,HDX difference (%D),[24],0.37%
same,HDX difference (Da),[24],0.0444 Da
same,HDX difference (%D),[25],0.9%
same,HDX difference (Da),[25],0.11 Da
same,HDX difference (%D),[26],-0.317%
same,HDX difference (Da),[26],-0.038 Da
same,HDX difference (%D),[27],0.158%
same,HDX difference (Da),[27],0.019 Da
same,HDX difference (%D),[28],0.185%
same,HDX difference (Da),[28],0.0222 Da
same,HDX difference (%D),[29],-0.357%
same,HDX difference (Da),[29],-0.0429 Da
same,HDX difference (%D),[30],0.02%
same,HDX difference (Da),[30],0.00239 Da
same,HDX difference (%D),[31],-0.7%
same,HDX difference (Da),[31],-0.15 Da
same,HDX difference (%D),[32],0.262%
same,HDX difference (Da),[32],0.0549 Da
same,HDX difference (%D),[33],0.265%
same,HDX difference (Da),[33],0.0556 Da
same,HDX difference (%D),[34],-0.134%
same,HDX difference (Da),[34],-0.0282 Da
same,HDX difference (%D),[35],-0.22%
same,HDX difference (Da),[35],-0.0463 Da
same,HDX difference (%D),[36],-0.43%
same,HDX difference (Da),[36],-0.04 Da
same,HDX difference (%D),[37],0.2%
same,HDX difference (Da),[37],0.0181 Da
